The values below come from US6706715B2, “Urea derivatives with antiproteolytic activity” (Aventis Pharma Deutschland GmbH, priority 2001, dated 2004).

This assay deals with T1, factor VIIa/tissue factor (Homo sapiens, UniProt P08709).
T1 construct: human factor VIIa and TF
T1 sequence (P08709 213-466 limits assumed): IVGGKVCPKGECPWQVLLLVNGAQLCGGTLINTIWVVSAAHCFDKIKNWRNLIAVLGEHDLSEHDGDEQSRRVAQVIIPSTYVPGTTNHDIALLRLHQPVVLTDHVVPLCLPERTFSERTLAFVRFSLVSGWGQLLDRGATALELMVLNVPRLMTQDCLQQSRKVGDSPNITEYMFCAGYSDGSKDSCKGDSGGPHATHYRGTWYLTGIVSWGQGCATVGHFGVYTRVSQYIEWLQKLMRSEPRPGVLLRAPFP
T1 sequence (P08709 61-212 limits assumed): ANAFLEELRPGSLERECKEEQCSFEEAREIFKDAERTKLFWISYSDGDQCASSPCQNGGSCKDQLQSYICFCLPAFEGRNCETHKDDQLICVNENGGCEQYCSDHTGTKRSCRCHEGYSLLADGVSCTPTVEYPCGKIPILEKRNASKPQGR
T1 sequence (P13726 33-295 partner): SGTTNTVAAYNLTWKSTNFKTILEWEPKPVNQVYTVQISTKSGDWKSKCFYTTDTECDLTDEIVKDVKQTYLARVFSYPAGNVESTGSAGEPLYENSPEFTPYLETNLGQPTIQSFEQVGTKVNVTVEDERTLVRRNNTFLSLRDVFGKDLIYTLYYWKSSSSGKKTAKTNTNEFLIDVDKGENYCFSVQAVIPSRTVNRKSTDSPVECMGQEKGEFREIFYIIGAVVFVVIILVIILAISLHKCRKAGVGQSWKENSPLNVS
As to the kind of experiment: Factor VIIa (FVIIa) chromogenic assay. Format: biochemical. The note with it: human factor VIIa 5 nM and TF 10 nM; chromogenic substrate S-2288 500 μM; 25° C.; 15 minute preincubation; pH 8.15. As to the method: The ability of the compounds of the formula I to inhibit factor VIIa or other enzymes like factor Xa, thrombin, plasmin, or trypsin can be assessed by determining the concentration of the compound of the formula I that inhibits enzyme activity by 50%, i.e. the IC50 value, which is related to the inhibition constant Ki. Purified enzymes are used in chromogenic assays. The concentration of inhibitor that causes a 50% decrease in the rate of substrate hydrolysis is determined by linear regression after plotting the relative rates of hydrolysis (compared to the uninhibited control) versus the log of the concentration of the compound of formula I. For calculating the inhibition constant Ki, the IC50 value is corrected for competition with substrate using the formula
Ki=IC50/{1+(substrate concentration/Km)}
wherein Km is the Michaelis-Menten constant (Chen and Prusoff, Biochem. Pharmacol. 22 (1973), 3099-3108; I. H. Segal, Enzyme Kinetics, 1975, John Wiley & Sons, New York, 100-125; which are incorporated herein by reference).
a) Factor VIIa (FVIIa) Assay
The inhibitory activity (expressed as inhibition constant Ki(FVIIa)) of the compounds of formula I towards factor VIIa/tissue factor activity was determined using a chromogenic assay essentially as described previously (J. A. Ostrem et al., Biochemistry 37 (1998) 1053-1059 which is incorporated herein by reference). Kinetic assays were conducted at 25° C. in half-area microtiter plates (Costar Corp., Cambridge, Mass.) using a kinetic plate reader (Molecular Devices Spectramax 250). A typical assay consisted of 25 μl human factor VIIa and TF (5 nM and 10 nM, respective final concentration) combined with 40 μl of inhibitor dilutions in 10% DMSO/TBS-PEG buffer (50 mM Tris, 15 mM NaCl, 5 mM CaCl2, 0.05% PEG 8000, pH 8.15). Following a 15 minute preincubation period, the assay was initiated by the addition of 35 μl of the chromogenic substrate S-2288 (D-Ile-Pro-Arg-p-nitroanilide, Pharmacia Hepar Inc., 500 μM final concentration).
Turning to `CC(Nc1ccccc1NC(=O)Nc1ccc(C(=N)N)cc1)c1ccccc1` (stereo not drawn) [Example 2, 4-{3-[2-(1-Phenyl-ethylamino)-phenyl]-ureido}-benzamidin], the Ki was 700 nM.

In turn, `CC(Nc1ccccc1NC(=O)Nc1ccc(C(=N)N)cc1)c1ccc(C(=O)N2CCOCC2)cc1` (stereo not drawn) [Example 5, 4-[3-(2-{1-[4-(morpholine-4-carbonyl)-phenyl]-ethylamino}-phenyl)-ureido]-benzamidine acetate] displayed a Ki of 188 nM.

`C[C@@H](Nc1ccccc1NC(=O)Nc1ccc(C(=N)N)cc1)c1ccccc1` [Example 15] registered a Ki of 103 nM.

Turning to `CC(Nc1ccccc1CNC(=O)Nc1ccc(C(=N)N)cc1)c1cccc(C(F)(F)F)c1` (stereo not drawn) [Example 18], affinity was put at a Ki of 44400 nM. Against the preceding compound, the Ki is about 430-fold higher.

Turning to `CC(Nc1ccccc1NC(=O)Nc1ccc(C(=N)N)cc1)c1ccc(C(=O)Nc2cccc(S(C)(=O)=O)c2)cc1` (stereo not drawn) [Example 19], the affinity corresponds to a Ki of 51 nM.

`CC(Nc1ccccc1NC(=O)Nc1ccc(C(=N)N)cc1)c1ccc(C(=O)NCc2ccc(S(C)(=O)=O)cc2)cc1` (stereo not drawn) [Example 24] had a Ki of 98 nM.

As to `CC(Nc1ccccc1NC(=O)Nc1ccc(C(=N)N)cc1)c1ccc(C(=O)Nc2csc(-c3ccccc3)c2)cc1` (stereo not drawn) [Example 30], affinity was put at a Ki of 282 nM.

For `CC(Nc1ccccc1NC(=O)Nc1ccc(C(=N)N)cc1)c1ccc(C(=O)NC2CCCCC2)cc1` (stereo not drawn) [Example 37], the inhibition constant (Ki) amounted to 56 nM.

Compound `CC(Nc1ccccc1NC(=O)Nc1ccc(C(=N)N)cc1)c1ccc(C(=O)Nc2ccc(C(F)(F)F)cc2)cc1` (stereo not drawn) [Example 39] gave a Ki of 935 nM.
